Results from article doi:10.1101/208439v1 (biorxiv, 2017).

Columns and labels:
PRMT6 = PRMT6 (Homo sapiens, UniProt Q96LA8); details: read-out: DA3003-1 IC50; inhibitor
PRMT7 = PRMT7 (Homo sapiens, UniProt Q9NVM4); assay: biochemical; details: read-out: DA3003-1 IC50; inhibitor
PRDM9 = PRDM9 (Homo sapiens, UniProt Q9NQV7); details: read-out: DA3003-1 IC50; inhibitor
MLL3 Complex = MLL3 Complex (Homo sapiens, UniProt Q8NEZ4); assay: HotSpot [3H]SAM filter-binding methyltransferase assay; assay type: biochemical; parameters: gene KMT2C; complex assembled as MLL1; MLL3 His tag, E. coli; with WD repeat-containing protein 5; Set1/Ash2 histone methyltransferase complex subunit ASH2; Protein dpy-30 homolog; details: core histone, […] SAM, pH […] MgCl2, […] DTT, […] °C, single experiment
PRMT5/MEP50 Complex = biological target: T1, PRMT5/MEP50 Complex (Homo sapiens, UniProt O14744); assay: as above; assay type: biochemical; details: histone H2A, […] SAM, pH […] DTT, […] °C, single experiment
T1 construct: coexpressed Flag-PRMT5 and His-MEP50, insect cell/baculovirus; with Methylosome protein WDR77
T1 sequence (O14744 2-637): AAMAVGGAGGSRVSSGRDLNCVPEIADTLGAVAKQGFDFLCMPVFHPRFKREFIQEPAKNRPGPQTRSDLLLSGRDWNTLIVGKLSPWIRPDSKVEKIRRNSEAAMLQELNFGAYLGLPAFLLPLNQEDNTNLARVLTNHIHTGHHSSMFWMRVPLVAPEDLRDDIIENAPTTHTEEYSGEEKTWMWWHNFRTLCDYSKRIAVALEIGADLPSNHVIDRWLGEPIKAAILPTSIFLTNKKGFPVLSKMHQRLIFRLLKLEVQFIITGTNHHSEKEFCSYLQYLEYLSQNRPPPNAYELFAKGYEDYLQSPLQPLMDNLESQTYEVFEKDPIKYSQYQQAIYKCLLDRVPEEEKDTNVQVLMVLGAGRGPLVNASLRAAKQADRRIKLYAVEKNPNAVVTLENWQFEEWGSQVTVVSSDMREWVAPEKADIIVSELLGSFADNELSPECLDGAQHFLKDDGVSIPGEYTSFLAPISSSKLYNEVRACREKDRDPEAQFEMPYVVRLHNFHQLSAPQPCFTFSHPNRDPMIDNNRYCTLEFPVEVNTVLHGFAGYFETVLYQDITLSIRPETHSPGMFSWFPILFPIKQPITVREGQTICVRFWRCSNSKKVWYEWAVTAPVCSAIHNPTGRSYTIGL
T1 sequence (Q9BQA1 2-342 partner): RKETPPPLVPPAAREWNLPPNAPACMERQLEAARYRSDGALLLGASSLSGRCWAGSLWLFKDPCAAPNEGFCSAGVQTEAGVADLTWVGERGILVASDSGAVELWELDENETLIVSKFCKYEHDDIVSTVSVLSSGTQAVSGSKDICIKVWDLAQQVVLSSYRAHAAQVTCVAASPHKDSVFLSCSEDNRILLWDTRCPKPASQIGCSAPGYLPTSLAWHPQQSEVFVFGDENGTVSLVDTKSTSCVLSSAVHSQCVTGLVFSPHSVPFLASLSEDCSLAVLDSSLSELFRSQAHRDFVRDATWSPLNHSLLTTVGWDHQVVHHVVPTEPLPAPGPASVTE

Chain of MLL3 Complex (Q9C005 whole entry): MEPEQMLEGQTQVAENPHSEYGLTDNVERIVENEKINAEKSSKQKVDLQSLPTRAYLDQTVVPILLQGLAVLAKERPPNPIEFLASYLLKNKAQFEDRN
Chain of MLL3 Complex (Q8NEZ4 4689-4911): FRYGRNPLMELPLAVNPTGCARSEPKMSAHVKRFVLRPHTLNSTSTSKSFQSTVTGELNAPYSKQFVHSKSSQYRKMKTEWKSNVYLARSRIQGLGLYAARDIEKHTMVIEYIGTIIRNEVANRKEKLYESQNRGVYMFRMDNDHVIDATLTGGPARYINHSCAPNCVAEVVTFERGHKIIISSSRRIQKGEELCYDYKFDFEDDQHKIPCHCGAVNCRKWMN
Chain of MLL3 Complex (Q9UBL3 96-628, further chain): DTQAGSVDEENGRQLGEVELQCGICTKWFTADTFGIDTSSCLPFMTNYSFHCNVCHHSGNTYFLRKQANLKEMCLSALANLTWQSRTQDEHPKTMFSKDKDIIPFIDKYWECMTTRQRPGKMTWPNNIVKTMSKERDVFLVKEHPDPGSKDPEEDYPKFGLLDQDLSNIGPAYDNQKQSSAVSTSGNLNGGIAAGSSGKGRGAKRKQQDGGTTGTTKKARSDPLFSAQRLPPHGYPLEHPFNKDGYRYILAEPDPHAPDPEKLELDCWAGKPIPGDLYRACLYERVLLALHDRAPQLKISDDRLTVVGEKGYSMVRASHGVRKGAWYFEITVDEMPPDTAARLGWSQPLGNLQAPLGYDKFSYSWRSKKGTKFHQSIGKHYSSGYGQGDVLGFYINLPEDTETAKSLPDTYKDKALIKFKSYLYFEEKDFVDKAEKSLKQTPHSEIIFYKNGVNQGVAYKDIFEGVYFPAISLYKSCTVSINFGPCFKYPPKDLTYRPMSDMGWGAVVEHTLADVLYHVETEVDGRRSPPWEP
Chain of MLL3 Complex (Q15291 whole entry, further chain): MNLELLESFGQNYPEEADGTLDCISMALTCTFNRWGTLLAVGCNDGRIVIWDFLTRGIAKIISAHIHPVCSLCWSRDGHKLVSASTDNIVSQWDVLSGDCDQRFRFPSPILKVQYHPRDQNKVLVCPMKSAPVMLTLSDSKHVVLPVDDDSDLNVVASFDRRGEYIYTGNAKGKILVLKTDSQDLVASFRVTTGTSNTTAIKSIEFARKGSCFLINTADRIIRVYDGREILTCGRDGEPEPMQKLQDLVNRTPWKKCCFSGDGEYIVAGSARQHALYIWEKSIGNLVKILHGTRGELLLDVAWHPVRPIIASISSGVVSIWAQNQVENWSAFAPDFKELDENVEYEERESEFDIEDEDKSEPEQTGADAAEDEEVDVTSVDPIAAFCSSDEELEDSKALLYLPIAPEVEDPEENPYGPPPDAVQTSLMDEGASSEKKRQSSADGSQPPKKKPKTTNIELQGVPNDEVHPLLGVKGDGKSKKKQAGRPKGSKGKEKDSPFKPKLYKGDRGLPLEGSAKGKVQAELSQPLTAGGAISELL
Chain of PRMT6 (Q96LA8 whole entry): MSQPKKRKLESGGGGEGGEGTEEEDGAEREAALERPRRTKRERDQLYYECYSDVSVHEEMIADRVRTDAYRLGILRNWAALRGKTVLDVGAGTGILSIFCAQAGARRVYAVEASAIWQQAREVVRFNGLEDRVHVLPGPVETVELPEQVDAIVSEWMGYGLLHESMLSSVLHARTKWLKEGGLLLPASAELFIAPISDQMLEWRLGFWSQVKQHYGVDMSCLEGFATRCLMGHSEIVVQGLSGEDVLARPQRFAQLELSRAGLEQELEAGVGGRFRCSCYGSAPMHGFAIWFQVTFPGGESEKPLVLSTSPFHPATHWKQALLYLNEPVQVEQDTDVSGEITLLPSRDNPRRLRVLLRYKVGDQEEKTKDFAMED
Chain of PRMT7 (Q9NVM4 whole entry): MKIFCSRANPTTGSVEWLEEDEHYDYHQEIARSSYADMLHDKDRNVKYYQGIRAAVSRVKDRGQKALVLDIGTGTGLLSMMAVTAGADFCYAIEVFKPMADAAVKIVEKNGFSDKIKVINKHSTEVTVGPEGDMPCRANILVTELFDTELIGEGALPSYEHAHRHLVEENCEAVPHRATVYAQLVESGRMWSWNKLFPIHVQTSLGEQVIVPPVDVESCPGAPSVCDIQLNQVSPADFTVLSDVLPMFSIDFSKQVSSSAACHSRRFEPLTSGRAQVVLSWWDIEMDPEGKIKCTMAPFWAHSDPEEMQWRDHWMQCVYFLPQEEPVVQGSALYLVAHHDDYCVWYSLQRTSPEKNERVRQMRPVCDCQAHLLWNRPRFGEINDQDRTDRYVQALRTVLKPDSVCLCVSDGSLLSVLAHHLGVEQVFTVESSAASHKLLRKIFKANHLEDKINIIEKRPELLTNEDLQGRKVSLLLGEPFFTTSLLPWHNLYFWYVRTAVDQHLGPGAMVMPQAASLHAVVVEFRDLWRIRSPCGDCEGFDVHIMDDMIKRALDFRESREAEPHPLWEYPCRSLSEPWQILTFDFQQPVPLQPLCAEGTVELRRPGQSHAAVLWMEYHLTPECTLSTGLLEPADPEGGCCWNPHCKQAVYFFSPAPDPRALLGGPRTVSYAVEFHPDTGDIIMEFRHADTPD
Chain of PRDM9 (Q9NQV7 whole entry): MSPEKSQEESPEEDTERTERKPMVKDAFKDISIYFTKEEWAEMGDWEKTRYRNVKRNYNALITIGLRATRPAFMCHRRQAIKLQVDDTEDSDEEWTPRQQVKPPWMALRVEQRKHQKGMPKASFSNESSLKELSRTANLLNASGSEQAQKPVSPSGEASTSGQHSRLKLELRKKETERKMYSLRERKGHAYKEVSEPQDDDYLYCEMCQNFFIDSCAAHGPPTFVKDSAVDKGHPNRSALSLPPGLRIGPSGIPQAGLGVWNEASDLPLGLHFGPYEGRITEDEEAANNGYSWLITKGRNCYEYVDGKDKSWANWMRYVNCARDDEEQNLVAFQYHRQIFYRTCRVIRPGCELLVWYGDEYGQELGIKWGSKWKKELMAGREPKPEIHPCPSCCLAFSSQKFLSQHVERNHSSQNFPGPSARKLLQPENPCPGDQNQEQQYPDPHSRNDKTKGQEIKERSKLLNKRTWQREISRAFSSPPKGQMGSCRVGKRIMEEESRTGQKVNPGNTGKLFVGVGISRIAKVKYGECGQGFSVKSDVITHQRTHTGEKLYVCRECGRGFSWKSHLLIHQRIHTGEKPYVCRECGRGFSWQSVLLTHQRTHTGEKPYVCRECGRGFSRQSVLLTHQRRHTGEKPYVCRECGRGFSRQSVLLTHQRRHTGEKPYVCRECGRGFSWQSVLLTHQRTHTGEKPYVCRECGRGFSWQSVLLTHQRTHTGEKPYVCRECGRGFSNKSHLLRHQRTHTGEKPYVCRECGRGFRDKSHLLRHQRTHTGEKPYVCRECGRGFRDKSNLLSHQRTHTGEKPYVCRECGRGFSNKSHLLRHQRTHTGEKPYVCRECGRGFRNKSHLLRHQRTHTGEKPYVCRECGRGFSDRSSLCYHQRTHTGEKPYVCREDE

IC50 (PRMT6) [nM] | IC50 (PRMT7) [nM] | IC50 (PRDM9) [nM] | IC50 (MLL3 Complex) [nM] | IC50 (PRMT5/MEP50 Complex) [nM] | Structure (SMILES)
1000 | 420 | 370 | – | – | O=C1C(Cl)=C(NCCN2CCOCC2)C(=O)c2ncccc21 [DA3003-1]
– | – | – | 63000 | 330 | COc1cccc(-n2nc(C(=O)O)cc2-c2ccc(C3CCCCC3)c(Cl)c2)c1 [TC LPA5 4]
